Patent publication US8673950B2, “Dihydrooxazol-2-amine derivatives” (Hoffmann-LaRoche Inc., priority 2010, dated 2014)

Key:
[1] = molecular target: mouse TAAR1 (Mus musculus (Mouse), UniProt Q923Y8); experiment: Radioligand binding assay on mouse TAAR1; details: mouse TAAR1, membranes of stably transfected HEK-293 cells; first value of cell mouse/rat
Description: (§1) Construction of TAAR Expression Plasmids and Stably Transfected Cell Lines
(§2) For the construction of expression plasmids the coding sequences of human, rat and mouse TAAR 1 were amplified from genomic DNA essentially as described by Lindemann et al.. The Expand High Fidelity PCR System (Roche Diagnostics) was used with 1.5 mM Mg^2+ and purified PCR products were cloned into pCR2.1-TOPO cloning vector (Invitrogen) following the instructions of the manufacturer. PCR products were subcloned into the pIRESneo2 vector (BD Clontech, Palo Alto, Calif.), and expression vectors were sequence verified before introduction in cell lines.
(§3) HEK293 cells (ATCC # CRL-1573) were cultured essentially as described by Lindemann et al. (2005). For the generation of stably transfected cell lines HEK293 cells were transfected with the pIRESneo2 expression plasmids containing the TAAR coding sequences (described above) with Lipofectamine 2000 (Invitrogen) according to the instructions of the manufacturer, and 24 hrs post transfection the culture medium was supplemented with 1 mg/ml G418 (Sigma, Buchs, Switzerland). After a culture period of about 10 d clones were isolated, expanded and tested for responsiveness to trace amines (all compounds purchased from Sigma) with the cAMP Biotrak Enzyme immunoassay (EIA) System (Amersham) following the non-acetylation EIA procedure provided by the manufacturer.
Radioligand Binding Assay on Mouse TAAR1
(§4) Membrane Preparation and Radioligand Binding.
(§5) HEK-293 cells stably expressing mouse TAAR1 were maintained at 37° C. and 5% CO2 in DMEM high glucose medium, containing fetal calf serum (10%, heat inactivated for 30 min at 56° C.), penicillin/streptomycin (1%), and 375 μg/ml geneticin (Gibco). Cells were released from culture flasks using trypsin/EDTA, harvested, washed twice with ice-cold PBS (without Ca^2+ and Mg^2+), pelleted at 1'000 rpm for 5 min at 4° C., frozen and stored at −80° C. Frozen pellets were suspended in 20 ml HEPES-NaOH (20 mM, pH 7.4) containing 10 mM EDTA and homogenized with a Polytron (PT 6000, Kinematica) at 14'000 rpm for 20 s. The homogenate was centrifuged at 48'000×g for 30 min at 4° C. Subsequently, the supernatant was removed and discarded, and the pellet resuspended in 20 ml HEPES-NaOH (20 mM, pH 7.4) containing 0.1 mM EDTA using the Polytron (20 s at 14'000 rpm). This procedure was repeated and the final pellet resuspended in HEPES-NaOH containing 0.1 mM EDTA and homogenized using the Polytron. Typically, aliquots of 2 ml membrane portions were stored at −80° C. With each new membrane batch the dissociation constant (Kd) was determined via a saturation curve. The TAAR1 radioligand ^3[H]-(S)-4-[(ethyl-phenyl-amino)-methyl]-4,5-dihydro-oxazol-2-ylamine (described in WO 2008/098857) was used at a concentration equal to the calculated Kd value, that was usually around 0.7 nM, resulting in the binding of approximately 0.5% of the radioligand and a specific binding representing approximately 70% of the total binding. Nonspecific binding was defined as the amount of ^3[H]-(S)-4-[(ethyl-phenyl-amino)-methyl]-4,5-dihydro-oxazol-2-ylamine bound in the presence of 10 μM unlabeled ligand. All compounds were tested at a broad range of concentrations (10 μM to 10 μM) in duplicates. […] The 96 deep well plates were incubated for 1 hr at 4° C. Incubations were terminated by rapid filtration through Unifilter-96 plates (Packard Instrument Company) and glass filters GF/C (Perkin Elmer) presoaked for 1 hr in polyethylenimine (0.3%) and washed 3 times with 1 ml of cold binding buffer. After addition of 45 μl of Microscint 40 (PerkinElmer) the Unifilter-96 plate was sealed and after 1 hr the radioactivity counted using a TopCount Microplate Scintillation Counter (Packard Instrument Company).

[2] = molecular target: rat TAAR1 (Rattus norvegicus (Rat), UniProt Q923Y9); experiment: Radioligand binding assay on rat TAAR1; details: rat TAAR1, membranes of stably transfected HEK-293 cells; second value of cell mouse/rat
Description: as §1, §2, §3
Radioligand Binding Assay on Rat TAAR1
as §4
as §5, with “expressing rat” for “expressing mouse”, “curve. […]” for “curve. The TAAR1 radioligand ^3[H]-(S)-4-[(ethyl-phenyl-amino)-methyl]-4,5-dihydro-oxazol-2-ylamine (described in WO 2008/098857) was used at a concentration equal to the calculated Kd value, that was usually around 0.7 nM, resulting in the binding of approximately 0.5% of the radioligand and a specific binding representing approximately 70% of the total binding.”, “(10 pM” for “(10 μM”

mouse TAAR1, sequence (Q923Y8 whole entry): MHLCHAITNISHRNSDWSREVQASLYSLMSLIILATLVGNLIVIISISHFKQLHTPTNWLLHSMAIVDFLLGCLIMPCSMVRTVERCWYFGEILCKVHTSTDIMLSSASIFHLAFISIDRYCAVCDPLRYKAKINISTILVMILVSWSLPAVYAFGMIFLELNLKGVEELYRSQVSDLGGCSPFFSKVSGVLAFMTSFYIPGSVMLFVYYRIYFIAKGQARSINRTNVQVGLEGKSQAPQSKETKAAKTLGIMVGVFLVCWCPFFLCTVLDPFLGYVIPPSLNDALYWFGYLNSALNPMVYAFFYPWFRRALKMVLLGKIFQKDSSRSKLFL
rat TAAR1, sequence (Q923Y9 whole entry): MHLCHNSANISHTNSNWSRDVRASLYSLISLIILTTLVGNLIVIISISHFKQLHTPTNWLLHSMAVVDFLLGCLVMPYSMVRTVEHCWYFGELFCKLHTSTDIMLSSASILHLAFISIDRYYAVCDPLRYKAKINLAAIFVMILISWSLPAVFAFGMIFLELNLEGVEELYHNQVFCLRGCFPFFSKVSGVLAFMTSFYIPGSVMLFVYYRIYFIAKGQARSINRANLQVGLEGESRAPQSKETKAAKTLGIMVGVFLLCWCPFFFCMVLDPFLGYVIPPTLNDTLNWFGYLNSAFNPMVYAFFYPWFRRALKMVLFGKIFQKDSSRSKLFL

| SMILES | Ki [1] [µM] | Ki [2] [µM] |
| --- | --- | --- |
| CC(=O)c1cnc(Nc2ccc(CC[C@H]3COC(N)=N3)cc2)nc1 [Example 47, 1-(2-{4-[2-((S)-2-Amino-4,5-dihydro-oxazol-4-yl)-ethyl]phenylamino}-pyrimidin-5-yl)-ethanone] | 0.0192 | 0.0024 |
| Cc1ccnc(Nc2ccc(CC[C@H]3COC(N)=N3)cc2)n1 [Example 48, {4-[2-((S)-2-Amino-4,5-dihydro-oxazol-4-yl)-ethyl]-phenyl}-(4-methyl-pyrimidin-2-yl)-amine] | 0.0166 | 0.0012 |
| CCCc1cnc(Nc2ccc(CC[C@H]3COC(N)=N3)cc2)nc1 [Example 49, {4-[2-((8)-2-Amino-4,5-dihydro-oxazol-4-yl)-ethyl]-phenyl}-(5-propyl-pyrimidin-2-yl)-amine] | 0.0007 | 0.0006 |
| NC1=N[C@@H](CCc2ccc(Nc3cnc(Cl)nc3)cc2)CO1 [Example 50, {4-[2-((S)-2-Amino-4,5-dihydro-oxazol-4-yl)-ethyl]-phenyl}-(2-chloro-pyrimidin-5-yl)-amine] | 0.0218 | 0.0006 |
| NC1=N[C@@H](CCc2ccc(Nc3ncc(Br)cn3)cc2)CO1 [Example 51, {4-[2-((S)-2-Amino-4,5-dihydro-oxazol-4-yl)-ethyl]-phenyl}-(5-bromo-pyrimidin-2-yl)-amine] | 0.0006 | 0.0004 |
| C[C@@H]1OC(N)=N[C@H]1CCc1ccc(Nc2ncc(Cl)cn2)cc1 [Example 52, {4-[2-((4S,5S)-2-Amino-5-methyl-4,5-dihydro-oxazol-4-yl)-ethyl]-phenyl}-(5-chloro-pyrimidin-2-yl)-amine] | 0.0046 | 0.0006 |
| CCC(=O)c1cnc(Nc2ccc(CC[C@H]3COC(N)=N3)cc2)nc1 [Example 53, (S)-1-(2-(4-(2-(2-Amino-4,5-dihydrooxazol-4-yl)ethyl)phenylamino)pyrimidin-5-yl)propan-1-one] | 0.113 | 0.0265 |
| NC1=N[C@@H](CCc2ccc(Nc3ncc(C4CC4)cn3)cc2)CO1 [Example 54, {4-[2-((S)-2-Amino-4,5-dihydro-oxazol-4-yl)-ethyl]-phenyl}-(5-cyclopropyl-pyrimidin-2-yl)-amine] | 0.0003 | 0.0004 |
| CCOc1cnc(Nc2ccc(CC[C@H]3COC(N)=N3)cc2)nc1 [Example 55, {4-[2-((S)-2-Amino-4,5-dihydro-oxazol-4-yl)-ethyl]-phenyl}-(5-ethoxy-pyrimidin-2-yl)-amine] | 0.005 | 0.0083 |
| NC1=N[C@@H](CCc2ccc(Nc3ncc(C(F)(F)F)cn3)cc2)CO1 [Example 56, (S)-4-(4-(5-(Trifluoromethyl)pyrimidin-2-ylamino)phenethyl)-4,5-dihydrooxazol-2-amine] | 0.0019 | 0.0039 |
| CC(C)(C)c1cnc(Nc2ccc(CC[C@H]3COC(N)=N3)cc2)nc1 [Example 57, (S)-4-(4-(5-tert-Butylpyrimidin-2-ylamino)phenethyl)-4,5-dihydrooxazol-2-amine] | 0.0005 | 0.0004 |
| CCC(CC)c1cnc(Nc2ccc(CC[C@H]3COC(N)=N3)cc2)nc1 [Example 58, (S)-4-(4-(5-(Pentan-3-yl)pyrimidin-2-ylamino)phenethyl)-4,5-dihydrooxazol-2-amine] | 0.0002 | 0.0001 |
| N#Cc1cnc(Nc2ccc(CC[C@H]3COC(N)=N3)cc2)nc1 [Example 59, 2-{4-[2-((S)-2-Amino-4,5-dihydro-oxazol-4-yl)-ethyl]-phenylamino}-pyrimidine-5-carbonitrile] | 0.008 | 0.0008 |
| NC1=N[C@@H](CCc2ccc(Nc3ncc(C4CCC4)cn3)cc2)CO1 [Example 60, (S)-4-(4-(5-Cyclobutylpyrimidin-2-ylamino)phenethyl)-4,5-dihydrooxazol-2-amine] | 0.0003 | 0.0002 |
| CC(C)c1cnc(Nc2ccc(CC[C@H]3COC(N)=N3)cc2)nc1 [Example 61, (S)-4-(4-(5-Isopropylpyrimidin-2-ylamino)phenethyl)-4,5-dihydrooxazol-2-amine] | 0.0007 | 0.0002 |
| NC1=N[C@@H](CCc2ccc(NC(c3ccc(Br)cn3)C(F)(F)F)cc2)CO1 (stereo partly drawn) [Example 62, (S)-4-(2-{4-[1-(5-Bromo-pyridin-2-yl)-2,2,2-trifluoro-ethylamino]-phenyl}-ethyl)-4,5-dihydro-oxazol-2-ylamine] | 0.0623 | 0.0132 |
| NC1=N[C@@H](CCc2ccc(NC(c3ccc(Cl)cc3)C(F)(F)F)cc2)CO1 (stereo partly drawn) [Example 63, (4S)-4-(4-(1-(4-Chlorophenyl)-2,2,2-trifluoroethylamino)phenethyl)-4,5-dihydrooxazol-2-amine] | 0.0084 | 0.0022 |
| NC1=N[C@@H](CCc2ccc(N[C@@H](c3ccc(Cl)cc3)C(F)(F)F)cc2)CO1 [Example 64, (+)-(S)-4-(4-((S)-1-(4-Chlorophenyl)-2,2,2-trifluoroethylamino)phenethyl)-4,5-dihydrooxazol-2-amine] | 0.063 | 0.002 |
| NC1=N[C@@H](CCc2ccc(N[C@H](c3ccc(Cl)cc3)C(F)(F)F)cc2)CO1 [Example 65, (−)-(S)-4-(4-((R)-1-(4-chlorophenyl)-2,2,2-trifluoroethylamino)phenethyl)-4,5-dihydrooxazol-2-amine] | 0.0244 | 0.0032 |
| NC1=N[C@@H](CCc2ccc(NC(c3cccc(F)c3)C(F)(F)F)cc2)CO1 (stereo partly drawn) [Example 66, (4S)-4-(4-(2,2,2-Trifluoro-1-(3-fluorophenyl)ethylamino)phenethyl)-4,5-dihydrooxazol-2-amine] | 0.023 | 0.0064 |
| NC1=N[C@@H](CCc2ccc(NC(c3ccc(C(F)(F)F)cc3)C(F)(F)F)cc2)CO1 (stereo partly drawn) [Example 67, (4S)-4-(4-(2,2,2-Trifluoro-1-(4-(trifluoromethyl)phenyl)ethylamino)phenethyl)-4,5-dihydrooxazol-2-amine] | 0.0412 | 0.0084 |
| NC1=N[C@@H](CCc2ccc(NC(c3ccc(Cl)cn3)C(F)(F)F)cc2)CO1 (stereo partly drawn) [Example 68, (4S)-4-(4-(1-(5-Chloropyridin-2-yl)-2,2,2-trifluoroethylamino)phenethyl)-4,5-dihydrooxazol-2-amine] | 0.0651 | 0.0265 |
